Drawing on patent US4663327A, “1-heteroaryl-4-aryl-pyrazolin-5-ones” (priority 1984, dated 1987), this text covers protective activity, MIC and systemic activity for 21 compounds.

Structures are written as SMILES. Values after ≈ are worked out from the molar mass of the structure shown.

One assay relates to Leptosphaeria nodorum. The assay is described as follows: Leptosphaeria nodorum test (wheat)/protective. The following applies: sprayed, evaluation 10 days after inoculation. The assay is classed as in vivo. The method, then: Leptosphaeria nodorum test (wheat)/protective Solvent: 100 parts by weight of dimethylformamide Emulsifier: 0.25 parts by weight of alkylaryl polyglycol ether To produce a suitable preparation of active compound, 1 part by weight of active compound is mixed with the stated amounts of solvent and emulsifier, and the concentrate is diluted with water to the desired concentration. To test for protective activity, young plants are sprayed with the preparation of active compound until dew-moist. After the spray coating has dried on, the plants are sprayed with a conidia suspension of Leptosphaeria nodorum. The plants remain for 48 hours in an incubation cabinet at 20° C. and 100% relative atmospheric humidity. The plants are placed in a greenhouse at a temperature of about 15° C. and a relative atmospheric humidity of about 80%. Evaluation is effected 10 days after the inoculation.

A further assay has as its system Cochliobolus sativus. Kind of assay: Cochliobolus sativus test (barley)/protective. Type of assay: in vivo. The following applies: sprayed, evaluation 7 days after inoculation. How it is done:
Cochliobolus sativus test (barley)/protective Solvent: 100 parts by weight of dimethylformamide Emulsifier: 0.25 parts by weight of alkylaryl polyglycol ether To produce a suitable preparation of active compound, 1 part by weight of active compound is mixed with the stated amounts of solvent and emulsifier, and the concentrate is diluted with water to the desired concentration. To test for protective activity, young plants are sprayed with the preparation of active compound until dew-moist. After the spray coating has dried on, the plants are sprayed with a conidia suspension of Cochliobolus sativus. The plants remain in an incubation cabinet for 48 hours at 20° C. and 100% relative atmospheric humidity. The plants are placed in a greenhouse at a temperature of about 20° C. and a relative atmospheric humidity of about 80%. Evaluation is carried out 7 days after the inoculation.

Another assay relates to Alternaria tenuis. Kind of assay: MIC on fungi in agar. The following applies: Alternaria alternata, 336 h.
Another assay deals with Aspergillus niger. Kind of assay: MIC on fungi in agar. The following applies: 336 h.
The next assay concerns Aureobasidium pullulans. The assay is described as follows: MIC on fungi in agar. The following applies: 336 h.
In a further assay the test system is Chaetomium globosum. Kind of assay: MIC on fungi in agar. The following applies: 336 h.
For another assay, the system named is Coniophora puteana. The assay is described as follows: MIC on fungi in agar. The following applies: 336 h.
The next assay concerns Lentinus tigrinus. The assay is described as follows: MIC on fungi in agar. The following applies: 336 h.
The subject of a further assay is Penicillium glaucum. Kind of assay: MIC on fungi in agar. The following applies: 336 h.
The test system of a further assay is Polyporus versicolor. Kind of assay: MIC on fungi in agar. The following applies: Trametes versicolor, 336 h.
In the next assay the test system is Sclerophoma pityophila. The assay is described as follows: MIC on fungi in agar. The following applies: Sydowia polyspora, 336 h.
The subject of another assay is Trichoderma viride. The assay is described as follows: MIC on fungi in agar. The following applies: 336 h.
The test system of another assay is Botrytis cinerea. Kind of assay: Botrytis test (BEAN)/protective. The assay is classed as in vivo. The following applies: sprayed, infected spots on leaves evaluated 3 days after inoculation. How it is done:
Botrytis test (BEAN)/protective Solvent: 4.7 parts by weight of acetone Emulsifier: 0.3 parts by weight alkyl aryl polyglycol ether To produce a suitable preparation of active compound, 1 pat by weight of active compound is mixed with the stated amounts of solvent and emulsifier, and the concentrate is diluted with water to the desired concentration. To test for protective activity, young plants are sprayed with the preparation of active compound until dripping wet. After the spray coating has dried on, 2 small pieces of agar covered with Botrytis cinerea are placed on each leaf. The inoculated plants are placed in a darkened humidity chamber at 20° C. 3 days after the inoculation, the size of the infected spots on the leaves is evaluated.

The subject of assay [1] is Pyricularia oryzae. Type of assay: in vivo. The following applies: rice, sprayed, disease infestation 4 days after inoculation.
The next assay concerns Phytophthora infestans. Type of assay: in vivo. The following applies: tomato, sprayed, evaluation 3 days after inoculation.
Assay [2] relates to Pyricularia oryzae. The assay is classed as in vivo. The following applies: rice, soil watered 7 days before inoculation, disease infestation 4 days after inoculation.

Procedure for Alternaria tenuis: (§1) After storage for 2 weeks at 28° C. and 60 to 70% relative atmospheric humidity, the MIC is determined.
Procedure for Aspergillus niger: as §1
Procedure for Aureobasidium pullulans: as §1
Procedure for Chaetomium globosum: as §1
Procedure for Coniophora puteana: as §1
Procedure for Lentinus tigrinus: as §1
Procedure for Penicillium glaucum: as §1
Procedure for Polyporus versicolor: as §1
Procedure for Sclerophoma pityophila: as §1
Procedure for Trichoderma viride: as §1

Take `O=c1c(-c2ccccc2F)c[nH]n1-c1ccccn1` [Example 5]: the protective activity result in the assay with Leptosphaeria nodorum and in the assay on Cochliobolus sativus was “clearly superior activity compared with the prior art” in each case. The MIC with Alternaria tenuis amounted to 20 µg/mL (≈ 78.4 µM); in the assay on Aspergillus niger, 3.5 µg/mL (≈ 13.7 µM); with Aureobasidium pullulans it was 20 µg/mL (≈ 78.4 µM); against Chaetomium globosum it was 0.5 µg/mL (≈ 1.96 µM); with Coniophora puteana, 2 µg/mL (≈ 7.84 µM); with Lentinus tigrinus, 20 µg/mL (≈ 78.4 µM). In addition, the MIC in the assay on Penicillium glaucum amounted to 5 µg/mL (≈ 19.6 µM); against Polyporus versicolor, 7.5 µg/mL (≈ 29.4 µM); in the assay with Sclerophoma pityophila, 15 µg/mL (≈ 58.8 µM); in the assay with Trichoderma viride, 35 µg/mL (≈ 137 µM).
Regarding `O=c1c(-c2ccc(Cl)cc2)c[nH]n1-c1ccccn1` [Example 9], the protective activity result in the assay with Leptosphaeria nodorum and with Cochliobolus sativus was “clearly superior activity compared with the prior art” in each case.
With `O=c1c(-c2c(F)cccc2Cl)c[nH]n1-c1ccccn1` [Example 11], the protective activity entry with Botrytis cinerea and in the assay with Pyricularia oryzae [1] was “clearly superior activity compared with the prior art” in each case.
As to `O=c1c(-c2ccc(Cl)cc2Cl)c[nH]n1-c1ccccn1` [Example 12], the protective activity entry with Botrytis cinerea and in the assay with Cochliobolus sativus was “clearly superior activity compared with the prior art” throughout.
Regarding `O=c1c(-c2ccc(Cl)c(Cl)c2)c[nH]n1-c1ccccn1` [Example 13], the protective activity entry in the assay with Phytophthora infestans was “clearly superior activity compared with the prior art”.
On to `COc1ccc(-c2c[nH]n(-c3ccccn3)c2=O)cc1` [Example 15], for which the protective activity result in the assay with Leptosphaeria nodorum is recorded as “clearly superior activity compared with the prior art”. The MIC in the assay with Alternaria tenuis was determined as 50 µg/mL (≈ 187 µM); in the assay with Aspergillus niger, 20 µg/mL (≈ 74.8 µM); in the assay on Aureobasidium pullulans, 50 µg/mL (≈ 187 µM); with Chaetomium globosum it was 0.5 µg/mL (≈ 1.87 µM); in the assay with Coniophora puteana, 5 µg/mL (≈ 18.7 µM); with Lentinus tigrinus it was 50 µg/mL (≈ 187 µM). Also, the MIC amounted to 75 µg/mL (≈ 281 µM) in the assay with Penicillium glaucum, 20 µg/mL (≈ 74.8 µM) in the assay with Polyporus versicolor, 50 µg/mL (≈ 187 µM) in the assay on Sclerophoma pityophila and 1000 µg/mL (≈ 3740 µM) in the assay on Trichoderma viride.
In the case of `O=c1c(-c2ccc(OC(F)(F)F)cc2)c[nH]n1-c1ccccn1` [Example 18], the systemic activity entry in the assay on Pyricularia oryzae [2] was “clearly superior activity compared with the prior art”. Moreover, the protective activity entry with Leptosphaeria nodorum and in the assay with Cochliobolus sativus was “clearly superior activity compared with the prior art” in each case.
As for `O=c1c(-c2ccc(SC(F)(F)F)cc2)c[nH]n1-c1ccccn1` [Example 19], the protective activity entry in the assay on Leptosphaeria nodorum is “clearly superior activity compared with the prior art”.
Regarding `O=c1c(-c2cccc(C(F)(F)F)c2)c[nH]n1-c1ccccn1` [Example 24], the protective activity result in the assay on Leptosphaeria nodorum and in the assay on Cochliobolus sativus was “clearly superior activity compared with the prior art” in each case.
For the compound `O=c1c(-c2cc(C(F)(F)F)ccc2Cl)c[nH]n1-c1ccccn1` [Example 26], the protective activity entry with Leptosphaeria nodorum and in the assay on Cochliobolus sativus was “clearly superior activity compared with the prior art” each time.
On to `O=c1c(-c2cc(C(F)(F)F)cc(C(F)(F)F)c2)c[nH]n1-c1ccccn1` [Example 28], for which the protective activity entry with Pyricularia oryzae [1], with Leptosphaeria nodorum and with Cochliobolus sativus was “clearly superior activity compared with the prior art” each time.
`O=c1c(-c2ccccc2Cl)c[nH]n1-c1ncccn1` [Example 84]: the protective activity entry in the assay on Botrytis cinerea and with Pyricularia oryzae [1] was “clearly superior activity compared with the prior art” each time. Besides, the minimal inhibitory concentration (MIC) amounted to 50 µg/mL (≈ 183 µM) in the assay with Alternaria tenuis; 10 µg/mL (≈ 36.7 µM) in the assay on Aspergillus niger; 20 µg/mL (≈ 73.3 µM) in the assay on Aureobasidium pullulans; 1.5 µg/mL (≈ 5.5 µM) against Chaetomium globosum; 2 µg/mL (≈ 7.33 µM) against Coniophora puteana; 50 µg/mL (≈ 183 µM) with Lentinus tigrinus. In addition, the MIC in the assay on Penicillium glaucum was 20 µg/mL (≈ 73.3 µM); against Polyporus versicolor, 35 µg/mL (≈ 128 µM); with Sclerophoma pityophila it was 10 µg/mL (≈ 36.7 µM); in the assay on Trichoderma viride it was 35 µg/mL (≈ 128 µM).
On to `O=c1c(-c2cccc(OC(F)(F)F)c2)c[nH]n1-c1ncccn1` [Example 92], for which the protective activity entry in the assay on Phytophthora infestans and with Cochliobolus sativus was “clearly superior activity compared with the prior art” throughout.
`O=c1c(-c2ccc(OC(F)(F)F)cc2)c[nH]n1-c1ncccn1` [Example 93]: the protective activity result in the assay with Phytophthora infestans is “clearly superior activity compared with the prior art”.
With `O=c1c(-c2ccc(SC(F)(F)F)cc2)c[nH]n1-c1ncccn1` [Example 94], the protective activity result in the assay on Botrytis cinerea is given as “clearly superior activity compared with the prior art”. Besides, in the assay with Pyricularia oryzae [2], the systemic activity result is “clearly superior activity compared with the prior art”.
Take `Cc1cccc(-c2c[nH]n(-c3ncccn3)c2=O)c1` [Example 97]: the systemic activity entry with Pyricularia oryzae [2] is given as “clearly superior activity compared with the prior art”. In addition, the MIC is 50 µg/mL (≈ 198 µM) against Alternaria tenuis; 10 µg/mL (≈ 39.6 µM) against Aspergillus niger; 50 µg/mL (≈ 198 µM) against Aureobasidium pullulans; 1 µg/mL (≈ 3.96 µM) in the assay on Chaetomium globosum; 2 µg/mL (≈ 7.93 µM) in the assay with Coniophora puteana; 10 µg/mL (≈ 39.6 µM) with Lentinus tigrinus. The MIC against Penicillium glaucum is 10 µg/mL (≈ 39.6 µM); with Polyporus versicolor, 5 µg/mL (≈ 19.8 µM); against Sclerophoma pityophila, 20 µg/mL (≈ 79.3 µM); in the assay on Trichoderma viride, 75 µg/mL (≈ 297 µM).
For `O=c1c(-c2ccc(C(F)(F)F)cc2)c[nH]n1-c1ncccn1` [Example 100], the protective activity result with Phytophthora infestans, with Leptosphaeria nodorum and in the assay with Cochliobolus sativus was “clearly superior activity compared with the prior art” each time. Moreover, the MIC with Alternaria tenuis turned out to be 50 µg/mL (≈ 163 µM); against Aspergillus niger, 500 µg/mL (≈ 1630 µM); with Aureobasidium pullulans, 50 µg/mL (≈ 163 µM); against Chaetomium globosum, 1 µg/mL (≈ 3.27 µM); against Coniophora puteana it was 5 µg/mL (≈ 16.3 µM); against Lentinus tigrinus, 15 µg/mL (≈ 49 µM). Moreover, the MIC was 10 µg/mL (≈ 32.7 µM) in the assay on Penicillium glaucum, 5 µg/mL (≈ 16.3 µM) with Polyporus versicolor, 20 µg/mL (≈ 65.3 µM) in the assay with Sclerophoma pityophila and 500 µg/mL (≈ 1630 µM) with Trichoderma viride.
`O=c1c(-c2cc(C(F)(F)F)ccc2Cl)c[nH]n1-c1ncccn1` [Example 102]: the protective activity result with Phytophthora infestans, in the assay with Botrytis cinerea and in the assay on Pyricularia oryzae [1] was “clearly superior activity compared with the prior art” in each case. Besides, the systemic activity entry in the assay with Pyricularia oryzae [2] is recorded as “clearly superior activity compared with the prior art”.
Turning to `O=c1c(-c2cccc3ccccc23)c[nH]n1-c1ncccn1` [Example 105], the protective activity result with Phytophthora infestans and in the assay with Pyricularia oryzae [1] was “clearly superior activity compared with the prior art” each time. Besides, the systemic activity result in the assay with Pyricularia oryzae [2] is listed as “clearly superior activity compared with the prior art”.
For `Cc1[nH]n(-c2ncccn2)c(=O)c1-c1ccccc1` [Example 106], in the assay on Leptosphaeria nodorum, the protective activity entry was “clearly superior activity compared with the prior art”.
`Cc1cc(-n2[nH]cc(-c3ccc(C(F)(F)F)cc3)c2=O)nc(C)n1` [Example 122]: the protective activity entry in the assay on Pyricularia oryzae [1] is given as “clearly superior activity compared with the prior art”.
